Measurements as given in publication PMC6996489 (Drug Design, Development and Therapy, 2020).

Columns and labels:
AChE = AChE (Homo sapiens, UniProt P22303); assay: Acetylcholine esterase inhibition screening; type: biochemical; conditions: concentration of 1 µm
BuChE = BuChE (Homo sapiens, UniProt P06276); assay: Butyrylcholine esterase inhibition screening; type: biochemical; conditions: concentration of 1 µm
MAO B = target: T1, MAO B (Homo sapiens, UniProt P27338); conditions: seven kynuramine concentrations, Lineweaver–Burk plots
T1 sequence (P27338 1-520): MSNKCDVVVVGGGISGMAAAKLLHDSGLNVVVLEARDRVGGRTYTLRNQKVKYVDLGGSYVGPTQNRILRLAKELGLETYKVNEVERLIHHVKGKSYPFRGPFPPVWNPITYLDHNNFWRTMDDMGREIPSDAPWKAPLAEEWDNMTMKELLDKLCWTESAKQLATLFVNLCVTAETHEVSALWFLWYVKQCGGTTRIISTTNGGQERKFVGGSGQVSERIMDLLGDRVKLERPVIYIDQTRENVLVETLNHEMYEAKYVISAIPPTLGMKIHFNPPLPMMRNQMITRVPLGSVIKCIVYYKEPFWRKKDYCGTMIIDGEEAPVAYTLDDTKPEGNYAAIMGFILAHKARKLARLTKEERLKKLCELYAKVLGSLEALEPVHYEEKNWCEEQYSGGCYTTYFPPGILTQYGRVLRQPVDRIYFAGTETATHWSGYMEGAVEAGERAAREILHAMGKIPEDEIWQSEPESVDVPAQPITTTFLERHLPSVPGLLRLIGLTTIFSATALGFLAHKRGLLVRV

[1] = target: T2, human recombinant monoamine oxidase B (MAO B) (Homo sapiens, UniProt P27338); type: biochemical; conditions: MAO B vs MAO A
T2 sequence (P27338 1-520): T1 sequence (P27338 1-520)

AChE, sequence (P22303 32-614): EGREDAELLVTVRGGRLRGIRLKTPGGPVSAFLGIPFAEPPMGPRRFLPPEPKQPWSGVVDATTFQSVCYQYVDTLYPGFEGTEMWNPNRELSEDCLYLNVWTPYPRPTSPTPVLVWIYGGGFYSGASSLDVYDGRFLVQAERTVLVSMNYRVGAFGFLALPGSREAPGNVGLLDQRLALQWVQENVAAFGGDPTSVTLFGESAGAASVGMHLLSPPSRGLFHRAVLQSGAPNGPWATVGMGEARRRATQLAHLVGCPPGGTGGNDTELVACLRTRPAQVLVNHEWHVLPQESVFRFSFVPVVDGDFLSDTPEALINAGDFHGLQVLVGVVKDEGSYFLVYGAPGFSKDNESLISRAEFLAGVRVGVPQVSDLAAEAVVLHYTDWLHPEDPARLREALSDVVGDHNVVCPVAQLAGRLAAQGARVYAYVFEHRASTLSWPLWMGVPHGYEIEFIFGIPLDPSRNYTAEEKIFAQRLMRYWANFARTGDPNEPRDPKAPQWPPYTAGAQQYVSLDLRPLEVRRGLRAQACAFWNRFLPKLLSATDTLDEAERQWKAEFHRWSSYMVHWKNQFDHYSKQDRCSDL
BuChE, sequence (P06276 29-602): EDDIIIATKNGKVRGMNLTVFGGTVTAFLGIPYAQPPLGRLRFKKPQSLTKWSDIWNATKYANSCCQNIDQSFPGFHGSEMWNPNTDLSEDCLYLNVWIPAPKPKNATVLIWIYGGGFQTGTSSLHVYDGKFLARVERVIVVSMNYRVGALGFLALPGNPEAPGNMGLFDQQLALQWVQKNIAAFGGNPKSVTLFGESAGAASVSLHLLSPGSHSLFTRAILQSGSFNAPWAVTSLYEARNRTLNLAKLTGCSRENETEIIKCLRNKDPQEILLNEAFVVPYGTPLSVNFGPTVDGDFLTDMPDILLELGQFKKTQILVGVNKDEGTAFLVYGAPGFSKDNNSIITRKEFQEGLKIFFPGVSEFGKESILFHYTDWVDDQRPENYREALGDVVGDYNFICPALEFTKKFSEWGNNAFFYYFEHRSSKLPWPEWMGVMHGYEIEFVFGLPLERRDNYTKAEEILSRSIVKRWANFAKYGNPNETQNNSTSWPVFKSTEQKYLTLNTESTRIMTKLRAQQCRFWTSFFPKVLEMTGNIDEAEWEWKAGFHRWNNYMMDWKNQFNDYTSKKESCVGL

| SMILES | inhibition of AChE at 1 µm (AChE) | inhibition of BuChE at 1 µm (BuChE) | Type of MAO B inhibition (MAO B) | fold lower affinity towards MAO B than MAO A [1] |
| --- | --- | --- | --- | --- |
| O=C(Nc1ccc([N+](=O)[O-])cc1[N+](=O)[O-])c1ccc2c(c1)OCO2 [Compound 55, N-(2,4-Dinitrophenyl)benzo[d][1,3]dioxole-5-carboxamide] | 24±1.8% | 57±4.5% | competitive |  |
| O=C(Nc1ccc([N+](=O)[O-])cc1[N+](=O)[O-])c1ccccc1 [Compound 7, N-(2,4-Dinitrophenyl)benzamide] |  |  |  | 8.3 fold |
